Data from patent US12637424B2, “Pharmaceutical salt of an arylpyrrole derivative” (SENTINEL ONCOLOGY LIMITED, priority 2020, dated 2026).

What was measured:
[1] = test system: U87-Luc cells intracerebrally implanted; experiment: U87-Luc orthotopic xenograft model; format: in vivo, male athymic nude mice; details: oral 100 mg/kg on days 1, 4, 7, 10 and 13; Day 15
Protocol: U87-Luc cells were intracerebrally implanted into the brains of male athymic nude mice and tumour growth was monitored by bioluminescent signal. In the treatment group animals were given an oral dose of 100 mg/kg of atropisomer A-2 on days 1, 4, 7, 10 and 13. The control group animals were given vehicle only.

[2] = Oral bioavailability and brain exposure in mouse PK; format: in vivo, Male CD-1 mice; details: mice
Protocol: Atropisomer A-2 was evaluated in an in vivo mouse model to determine brain and plasma concentrations following p.o. and i.v. dosing. Male CD-1 mice were dosed with atropisomer A-2, either by i.v. administration (2 mg/kg) or by p.o. administration (10 mg/kg). Eight samples were taken for analysis in the i.v. leg at 2, 10, 30 min, 1, 2, 4, 8, and 24 (for i.v) and 9 samples in the p.o. leg at 15, 30 min, 1, 2, 4, 8, 24, 48 and 72 hrs. Atropisomer A-2 was formulated in 10% DMSO/[…] hydroxypropyl-beta-cyclodextrin (20% w/v in water) for i.v. and p.o. dosing. N=3 mice per time point. Post dosing, terminal blood samples were taken from individual animals and delivered into labelled polypropylene tubes containing anticoagulant (EDTA). The samples were held on wet ice for a maximum of 30 min while sampling of all the animals in the cohort was completed. The blood samples were centrifuged for plasma (4° C., 21100 g for 5 min) and the resulting plasma transferred into corresponding labelled tubes. Terminal brains from each PO dosed animal were excised, rinsed with saline and placed into pre-weighed labelled polypropylene tubes and the samples re-weighed prior to storage. Quantitative bioanalysis was carried out using liquid chromatography—mass spectroscopy was performed. The results are shown in Tables 14 and 15 below and in FIGS. 12 and 13.

[3] = test system: HeLa cells engineered to inducibly express oncogenic KRasG12V; experiment: Wild-type versus KRAS HeLa cell viability (Cell Titre Blue); format: cell-based; details: Homo sapiens, KRAS G12V transgene, 72 hours
Protocol: (§1) Thus, atropisomer A-2 was tested on HeLa cells engineered to inducibly express wild-type or oncogenic […] transgenes using the FLP-in/T-Rex system (Invitrogen). Cells were plated, and then treated with or without doxycycline to induce transgene expression, and then treated with serially-diluted atropisomer A-2. After 72 hours of incubation, cell viability was assessed using the Cell Titre Blue reagent (Promega) and a BMG Pherastar plate reader. The effect of PBD inhibition on cell viability with either wild-type or oncogenic G12V KRAS was assessed using GraphPad Prism.

[4] = test system: HeLa cells engineered to inducibly express wild-type KRAS; experiment: as above; format: cell-based; details: Homo sapiens, wild-type KRAS transgene, 72 hours, read-out: WT GI50
Protocol: as §1

[5] = test system: HeLa cells stably expressing a Centrin1-GFP fusion protein; experiment: Centriole number (Centrin1-GFP) assay; format: cell-based; details: 0.02 μM, 72 hours
Protocol: The effect of A-2 on centrosome function was therefore investigated further. HeLa cells stably expressing a Centrin1-GFP fusion protein were seeded into 96-well plates overnight. Cells were treated with atropisomer A-2 (at a concentration of 0.02 μM in DMSO) or DMSO control for 72 hours and then imaged using a fluorescence microscope. Multiple cell fields were captured for each treatment condition, and the images were subsequently analysed manually. Centrin1-GFP specifically marks centrioles as discrete foci, and therefore can be used to quantitate centriole number per cell. Thus, for each treatment condition, 100 cells were analysed and the number of centrioles present in each cell was recorded. The data were then separated into bins (no centrioles, 1 centriole, 2 centrioles, and greater than 2 centrioles) and are shown in FIG. 11.

U87MG cells = experiment: Mitotic phenotype classification; format: cell-based; details: 0.03 μM, 24 hours
Protocol: Distinct mitotic phenotypes are induced following inhibition of PLK1 and PLK4 in cells. […] Centriole assembly is controlled by PLK4, with inhibitors inducing a multipolar spindle phenotype due to centrosome defects which results in abnormal cyokinesis (Wong et al., 2015. Science 348(6239); 1155-1160). Cells were plated at 10 000/well in 96-well plates and incubated overnight. The following day atropisomer A-2 stocks in DMSO were diluted in medium then added to cells with a maximum final DMSO concentration on cells of 0.2%. Cells were incubated with the compound for 24 hours then fixed in 3.7% formaldeyde. Cells were permeabilised with 0.1% Triton X-100 then incubated with anti-phospho-histone H3 (Ser10) antibody (Abcam ab5176). The cells were washed with PBS then incubated with AlexaFluor 488 labelled goat anti-rabbit IgG (Invitrogen A11034) in the presence of 4 ug/ml Hoechst 33342 (Invitrogen H3570). Cells were washed in PBS then imaged on an Arrayscan VTi HCS instrument (Thermo Fisher) using the Target Activation V4 Bioapplication. A user-defined threshold was applied to identify mitotic cells based on the intensity of phospho-histone H3 staining. In a separate study, following the above protocol but using single compound concentrations of 0.03 μM for each of atropisomer A-1 and atropisomer A-2, the frequency of observed mitotic phenotypes in U87MG cells was manually assessed and classified into the following phenotypes: non-congressed chromosomes, multipolar spindles/abnormal cytokinesis, monopolar spindles, normal prometaphase, normal metaphase for each of A-1 and A-2.

Row | SMILES | bioluminescent tumour signal, treated versus control [1] | CI ([2]; 2 mg/Kg IV, plasma) [mL/min/kg] | F ([2]; 10 mg/Kg PO vs 2 mg/Kg IV) [%] | GI50 [3] [nM] | GI50 [4] [nM] | effect on centriole number per cell [5] | cells with abnormal cytokinesis (U87MG cells) [%] | cells with non-congressed chromosomes (U87MG cells) | cells with normal mitotic phenotype (U87MG cells) [%]
1 | CN(C)CCNC(=O)c1ccc(-c2ccc(-c3ccc(Cl)cc3)n2-c2ccccc2C(F)(F)F)cc1 (single isomer, unassigned) [Atropisomer A-2] | a decrease in tumour signal | 20.5 | 76 | 2.08 | 3.01 | evidence of PLK4 inhibition phenotypes |  |  | 
2 | CN(C)CCNC(=O)c1ccc(-c2ccc(-c3ccc(Cl)cc3)n2-c2ccccc2C(F)(F)F)cc1 (single isomer, unassigned; atropisomer a) [Atropisomer A-1] |  |  |  |  |  |  | 24 | No evidence | 76
